In patent publication US20100323990A1, “SHIP 1 MODULATOR PRODRUGS” (THE UNIVERSITY OF BRITISH COLUMBIA, priority 2006, published 2010):

Experiments:
Mast cells = test: Stimulation of mast cells by FcεRI crosslinking (Assay 4); assay type: cell-based; conditions: test compound 30 min prior to DNP-HSA
Description: Assay 1) In vitro testing in a SHIP enzyme assay. Test compounds were dissolved in a suitable solvent (e.g. EtOH, DMSO and others) and diluted into aqueous buffer (20 mM Tris HCl, pH 7.5 and 10 mM MgCl2). SHIP enzyme assays were performed in 96-well microtitre plates with 10 ng of enzyme/well in a total volume of 25 μL of 20 mM Tris HCl, pH 7.5 and 10 mM MgCl2. SHIP enzyme was incubated with test extracts (provided in solvent) or vehicle for 15 min at 23° C. before the addition of 100 μM inositol-1,3,4,5-tetrakisphosphate (Echelon Biosciences Inc, Salt Lake City, Utah). After 20 min at 37° C. and the amount of inorganic phosphate released assessed by the addition of Malachite Green reagent and absorbance measurement at 650 nm. Assay 2) Macrophage TNF-α production. J774.1a macrophage cells were treated with 10 μg/mL of test compound dissolved in solvent (e.g. cyclodextran) for 40 minutes prior to the addition of 100 ng/mL LPS. Culture supernatants were collected after 2 hr and 5 hr for TNF-α determination by ELISA. Assay 3) Macrophage TNF-α NO assay. J774.1a macrophage cells were treated with 10 μg/ml of test compound dissolved in solvent for 40 minutes prior to the addition of LPS. Culture supernatants were collected after 24 hr. for determination of NO concentration using the Griess reagent. Assay 4) Stimulation of mast cells by FcεRI crosslinking. Mast cells were pre-loaded overnight in BMMC medium lacking IL-3 with 0.1 μg/ml anti-DNP IgE (SPE-7, Sigma, Oakville, Ont). For calcium flux measurements, cells were incubated with 2 μM fura 2-acetoxymethyl ester (Molecular Probes, Eugene, Oreg.) in Tyrode's buffer at 23° C. for 45 min. Cells were then washed and incubated in the presence of the test compound 30 min prior to stimulation with the indicated concentration of DNP-human serum albumin (DNP-HSA). Calcium influx was monitored by spectrofluorometry as described previously. For analysis of intracellular signaling, cells were pre-loaded with anti-DNP IgE as above, pre-treated with the test compound for 30 min at 37° C. and stimulated with 20 ng/ml DNP-HSA for 5 min. Total cell lysates were then prepared and analyzed for phospho-PKB, phospho-p38^MAPK, phospho-MAPK, Grb-2 (Cell Signalling, Mississauga, Ont) and SHIP^6 by immunoblot analysis. Assay 5) Mouse acute cutaneous anaphylaxis model. […] The ability of SHIP activators to reduce tumor cell survival was assessed in MM cell lines treated with the test compound. The lines OPM1, OPM2, MM.1S and RPMI 8226 were plated at a density of 1×10^5 cells/mL in 200 μL of medium with various concentrations of the test compound, and viable cell numbers were determined on day 3 and day 5 by trypan blue exclusion. […]

J774.1a macrophage cells [1] = test: Macrophage TNF-α production (Assay 2); assay type: cell-based; conditions: 10 μg/mL test compound, 100 ng/mL LPS, supernatants after 2 hr and 5 hr; note: key: a ‘+’ indicates a positive result for desired activity; a ‘−’ indicates a negative result for desired activity
Description: (§1) Assay 1) In vitro testing in a SHIP enzyme assay. Test compounds were dissolved in a suitable solvent (e.g. EtOH, DMSO and others) and diluted into aqueous buffer (20 mM Tris HCl, pH 7.5 and 10 mM MgCl2). SHIP enzyme assays were performed in 96-well microtitre plates with 10 ng of enzyme/well in a total volume of 25 μL of 20 mM Tris HCl, pH 7.5 and 10 mM MgCl2. SHIP enzyme was incubated with test extracts (provided in solvent) or vehicle for 15 min at 23° C. before the addition of 100 μM inositol-1,3,4,5-tetrakisphosphate (Echelon Biosciences Inc, Salt Lake City, Utah). After 20 min at 37° C. and the amount of inorganic phosphate released assessed by the addition of Malachite Green reagent and absorbance measurement at 650 nm. Assay 2) Macrophage TNF-α production. J774.1a macrophage cells were treated with 10 μg/mL of test compound dissolved in solvent (e.g. cyclodextran) for 40 minutes prior to the addition of 100 ng/mL LPS. Culture supernatants were collected after 2 hr and 5 hr for TNF-α determination by ELISA. Assay 3) Macrophage TNF-α NO assay. J774.1a macrophage cells were treated with 10 μg/ml of test compound dissolved in solvent for 40 minutes prior to the addition of LPS. Culture supernatants were collected after 24 hr. for determination of NO concentration using the Griess reagent. Assay 4) Stimulation of mast cells by FcεRI crosslinking. Mast cells were pre-loaded overnight in BMMC medium lacking IL-3 with 0.1 μg/ml anti-DNP IgE (SPE-7, Sigma, Oakville, Ont). For calcium flux measurements, cells were incubated with 2 μM fura 2-acetoxymethyl ester (Molecular Probes, Eugene, Oreg.) in Tyrode's buffer at 23° C. for 45 min. Cells were then washed and incubated in the presence of the test compound 30 min prior to stimulation with the indicated concentration of DNP-human serum albumin (DNP-HSA). Calcium influx was monitored by spectrofluorometry as described previously. For analysis of intracellular signaling, cells were pre-loaded with anti-DNP IgE as above, pre-treated with the test compound for 30 min at 37° C. and stimulated with 20 ng/ml DNP-HSA for 5 min. Total cell lysates were then prepared and analyzed for phospho-PKB, phospho-p38^MAPK, phospho-MAPK, Grb-2 (Cell Signalling, Mississauga, Ont) and SHIP^6 by immunoblot analysis. Assay 5) Mouse acute cutaneous anaphylaxis model. 6-8 week old CD1 mice (University of British Columbia Animal Facility, Vancouver, BC) were sensitized to the hapten DNP by cutaneous application of 25 μL of 0.5% dinitrofluorobenzene (DNFB) (Sigma, Oakville, Ont) in acetone to the shaved abdomen of mice for two consecutive days. 24 hrs later, test substances (dissolved in 10 μL of 1:2 DMSO:MeOH) were painted on the right ear while the left ear received vehicle control. 30 min after drug application, DNFB was applied to both ears to induce mast cell degranulation. A 6 mm punch was taken from the ear and immediately frozen on dry ice for subsequent determination of neutrophil myeloperoxidase (MPO) activity. Assay 6) Mouse endotoxemia model. 6-8 week old C57B16 mice (VCHRI Mammalian Model of Human Disease Core Facility, Vancouver, BC) were orally administered the test compound 30 min prior to an IP injection of 2 mg/kg of LPS (E. Coli serotype 0111:B4, Sigma, Oakville, Ont). Blood was drawn 2 hrs later for determination of plasma TNFα by ELISA. Assay 7) In vitro Mulitple Myeloma (MM) assay. The ability of SHIP activators to reduce tumor cell survival was assessed in MM cell lines treated with the test compound. The lines OPM1, OPM2, MM.1S and RPMI 8226 were plated at a density of 1×10^5 cells/mL in 200 μL of medium with various concentrations of the test compound, and viable cell numbers were determined on day 3 and day 5 by trypan blue exclusion. The lines RPMI 8226 and U266 were plated at a density of 1×10^6 cells/mL in 250 μL of medium with various concentrations of the test compound. At day 4, the medium of each culture was replaced by fresh medium containing the same concentration of test compound. […]

[2] = tested on: Bone marrow derived mast cells; test: Calcium influx in mast cells after IgE receptor crosslinking (Example 11); assay type: cell-based; conditions: 1 hr treatment, anti IgE antibody
Description: An assay to determine the inhibition of calcium influx in mast cells by Compound 106 was carried out as follows.
The activation of mast cells by IgE receptor crosslinking leads to an influx of calcium into the cells, followed by degranulation and secretion of pro-inflammatory mediator. Bone marrow derived mast cells were loaded with the fluorescent calcium indicator dye Fura-2 prior to treatment for 1 hr with Compound 106 or PBS carrier. Cells were then stimulated or not with an anti IgE antibody to cross-link the IgE receptors. Calcium influx was then monitored by fluorimetry. The results are depicted in a graph in FIG. 3.

plasma TNFα = test: Mouse endotoxemia model (Assay 6), plasma TNFα by ELISA; assay type: in vivo, mice; conditions: oral, 30 min prior to IP 2 mg/kg LPS, plasma TNFα 2 hrs later
Description: as §1, with “6-8 week old C57B16 mice (VCHRI Mammalian Model of Human Disease Core Facility, Vancouver, BC) were orally administered the test compound 30 min prior to an IP injection of 2 mg/kg of LPS (E. Coli serotype 0111:B4, Sigma, Oakville, Ont). Blood was drawn 2 hrs later for determination of plasma TNFα by ELISA. Assay 7) In vitro Mulitple Myeloma (MM) assay.” left out, “exclusion.” for “exclusion. The lines RPMI 8226 and U266 were plated at a density of 1×10^6 cells/mL in 250 μL of medium with various concentrations of the test compound. At day 4, the medium of each culture was replaced by fresh medium containing the same concentration of test compound.”

J774.1a macrophage cells [3] = test: Macrophage TNF-α NO assay (Assay 3), Griess reagent; assay type: cell-based; conditions: 10 μg/ml test compound, LPS, supernatants after 24 hr; note: key: a ‘+’ indicates a positive result for desired activity; a ‘−’ indicates a negative result for desired activity
Description: as §1

J2M macrophage cells = test: TNFα production in LPS-stimulated J2M macrophages (Example 10); assay type: cell-based; conditions: 2 ng/mL LPS
Description: An assay to determine the inhibition of macrophage TNFα by varying concentrations of Compound 106 was carried out as follows.
J2M macrophage cells were plated at 2×10^5 cells/well in 24 well plates. The next day the media was changed and Compound 106 or PBS carrier were added to the wells at the indicated concentrations for 30 min prior to stimulation of the cells with 2 ng/mL lipopolysaccharide (LPS). LPS activation of macrophages leads to production of TNFa which can be detected in the culture supernatant and quantified by ELISA. The results are depicted in a graph in FIG. 2.

**Q.** `Cc1cc(OC(=O)C(N)CCCCN)cc2c1[C@]1(C)CCC3C(C)(C)CCC[C@]3(C)[C@H]1C2` (stereo partly drawn) [Compound 106] was tested. Which “Assay 4: Stimulation of mast cells by FcεRI crosslinking, desired activity” value (Mast cells) did it give?
**A.** +

**Q.** What about the “Assay 2: Macrophage TNF-α production, desired activity” value (J774.1a macrophage cells [1]) of the same compound?
**A.** +

**Q.** What about the “inhibition of calcium influx in mast cells” value [2] of the same compound?
**A.** Inhibits Calcium Influx in Mast Cells

**Q.** And the “Assay 6: Mouse endotoxemia model, desired activity” value (plasma TNFα)?
**A.** +

**Q.** What about the “Assay 3: Macrophage NO assay, desired activity” value (J774.1a macrophage cells [3]) of the same compound?
**A.** +

**Q.** What about the “inhibition of macrophage TNFα production” value (J2M macrophage cells) of the same compound?
**A.** Inhibits Macrophage TNFα Production
